Our source for the DC50 and Dmax values is patent US20230372498A1, “PLK1 SELECTIVE DEGRADATION INDUCING COMPOUND” (UPPTHERA, priority 2020, published 2023).

The assay has as its target T1, PLK1 (Homo sapiens, UniProt P53350).
T1 construct: endogenous in cells; host or cells: HeLa
Put plainly: PLK1 protein degradation in HeLa cells, Western blotting (PLK1/GAPDH ratio). It is filed as cell-based. As to conditions: 6 hours compound incubation; for DC50: measured only if the grade of Dmax is A or B; for Dmax: thymidine block and release, 10 points three-fold from 3 μM, PLK1 to GAPDH ratio, read-out: Dmax. The gist of the method:
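Thymidine-synchronised HeLa cells (2 mM, 24 h) released 4 h into complete medium, then treated 6 h with compound in 10-point 3-fold dilutions from 3 μM. RIPA lysates (15 μg protein) run on SDS-PAGE; PLK1 Western blot normalised to GAPDH.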
On the technique in general: Immunoblotting shows a protein as a band on a membrane.

Bounds are passed on as bounds.

T1 sequence (P53350 whole entry): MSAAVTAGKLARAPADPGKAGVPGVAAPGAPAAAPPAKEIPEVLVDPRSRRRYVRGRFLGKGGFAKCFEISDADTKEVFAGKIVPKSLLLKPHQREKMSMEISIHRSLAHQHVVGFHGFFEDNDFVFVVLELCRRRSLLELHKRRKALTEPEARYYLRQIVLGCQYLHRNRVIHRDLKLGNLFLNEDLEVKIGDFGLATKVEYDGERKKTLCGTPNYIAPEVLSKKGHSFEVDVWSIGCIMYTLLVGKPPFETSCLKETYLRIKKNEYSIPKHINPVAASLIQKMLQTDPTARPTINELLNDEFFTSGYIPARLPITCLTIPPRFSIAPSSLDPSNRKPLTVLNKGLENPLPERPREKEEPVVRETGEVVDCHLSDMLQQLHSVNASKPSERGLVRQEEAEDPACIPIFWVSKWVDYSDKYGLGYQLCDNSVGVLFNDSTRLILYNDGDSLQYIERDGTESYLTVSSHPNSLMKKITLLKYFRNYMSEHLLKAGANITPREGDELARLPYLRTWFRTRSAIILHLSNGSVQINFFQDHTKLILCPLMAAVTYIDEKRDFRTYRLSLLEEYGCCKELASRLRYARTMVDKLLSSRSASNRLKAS

Consider `CCC(C)Oc1cc(C(=O)NC2CCN(CCOCCOCCNc3cccc4c3C(=O)N(C3CCC(=O)NC3=O)C4=O)CC2)c(F)cc1Nc1ncc2c(n1)N(C1CCCC1)CC(F)(F)C(=O)N2C` (stereo not shown) [Example 94, 5-(sec-butoxy)-4-((9-cyclopentyl-7,7-difluoro-5-methyl-6-oxo-6,7,8,9-tetrahydro-5H-pyrimido[4,5-b][1,4]diazepin-2-yl)amino)-N-(1-(2-(2-(2-((2-(2,6-dioxopiperidin-3-yl)-1,3-dioxoisoindolin-4-yl)amino)ethoxy)ethoxy)ethyl)piperidin-4-yl)-2-fluorobenzamide], for which the half-maximal degradation concentration (DC50) is above 500 nM and the Dmax was 60 to 80%. Taken in the same sequence, the figures for `COc1cc(C(=O)NC2CCN(CCCCCCCCOc3cc(-c4scnc4C)ccc3CNC(=O)[C@@H]3C[C@@H](O)CN3C(=O)[C@@H](NC(=O)C3(F)CC3)C(C)(C)C)CC2)c(F)cc1Nc1ncc2c(n1)N(C1CCCC1)CC(F)(F)C(=O)N2C` [Example 89, (2S,4R)—N-(2-((8-(4-(4-((9-cyclopentyl-7,7-difluoro-5-methyl-6-oxo-6,7,8,9-tetrahydro-5H-pyrimido[4,5-b][1,4]diazepin-2-yl)amino)-2-fluoro-5-methoxybenzamido)piperidin-1-yl)octyl)oxy)-4-(4-methylthiazol-5-yl)benzyl)-1-((S)-2-(1-fluorocyclopropane-1-carboxamido)-3,3-dimethylbutanoyl)-4-hydroxypyrrolidine-2-carboxamide] were at most 500 nM and 60 to 80%. Taken in the same sequence, the figures for `COc1cc(C(=O)NC2CCN(CCCOCCCNc3cccc4c3C(=O)N(C3CCC(=O)NC3=O)C4=O)C2)c(F)cc1Nc1ncc2c(n1)N(C1CCCC1)CC(F)(F)C(=O)N2C` (stereo not shown) [Example 111, 4-((9-cyclopentyl-7,7-difluoro-5-methyl-6-oxo-6,7,8,9-tetrahydro-5H-pyrimido[4,5-b][1,4]diazepin-2-yl)amino)-N-(1-(3-(3-((2-(2,6-dioxopiperidin-3-yl)-1,3-dioxoisoindolin-4-yl)amino)propoxy)propyl)pyrrolidin-3-yl)-2-fluoro-5-methoxybenzamide] were at most 50 nM and at least 80%. Taken in the same sequence, the figures for `COc1cc(C(=O)NC2CCN(C(=O)CN3CCN(c4ccc5c(c4)C(=O)N(C4CCC(=O)NC4=O)C5=O)CC3)CC2)c(F)cc1Nc1ncc2c(n1)N(C1CCCC1)CC(F)(F)C(=O)N2C` (stereo not shown) [Compound 73, 4-((9-cyclopentyl-7,7-difluoro-5-methyl-6-oxo-6,7,8,9-tetrahydro-5H-pyrimido[4,5-b][1,4]diazepin-2-yl)amino)-N-(1-(2-(4-(2-(2,6-dioxopiperidin-3-yl)-1,3-dioxoisoindolin-5-yl)piperazin-1-yl)acetyl)piperidin-4-yl)-2-fluoro-5-methoxybenzamide] were at most 50 nM and at least 80%. For the molecule `COc1cc(C(=O)N[C@H]2CCN(C(=O)CN3CCN(c4cccc5c4C(=O)N(C4CCC(=O)NC4=O)C5=O)CC3)C2)c(F)cc1Nc1ncc2c(n1)N(C1CCCC1)CC(F)(F)C(=O)N2C` (stereo partly shown) [Compound 130], the 50% degradation concentration (DC50) is at most 50 nM and the greatest degradation seen (Dmax) was at least 80%.

In the case of `COc1cc(C(=O)NC2CC3(C2)CN(C(=O)CCCNc2cccc4c2C(=O)N(C2CCC(=O)NC2=O)C4=O)C3)c(F)cc1Nc1ncc2c(n1)N(C1CCCC1)CC(F)(F)C(=O)N2C` (stereo not shown) [Compound 160, 4-((9-cyclopentyl-7,7-difluoro-5-methyl-6-oxo-6,7,8,9-tetrahydro-5H-pyrimido[4,5-b][1,4]diazepin-2-yl)amino)-N-(2-(4-((2-(2,6-dioxopiperidin-3-yl)-1,3-dioxoisoindolin-4-yl)amino)butanoyl)-2-azaspiro[3.3]heptan-6-yl)-2-fluoro-5-methoxybenzamide], the DC50 was at most 50 nM and the Dmax is at least 80%.

For the molecule `COc1cc(C(=O)NCCOCCOCCNc2cccc3c2C(=O)N(C2CCC(=O)NC2=O)C3=O)c(F)cc1Nc1ncc2c(n1)N(C(C)C)CC(F)(F)C(=O)N2C` (stereo not shown) [Example 167, 4-((7,7-difluoro-9-isopropyl-5-methyl-6-oxo-6,7,8,9-tetrahydro-5H-pyrimido[4,5-b][1,4]diazepin-2-yl)amino)-N-(2-(2-(2-((2-(2,6-dioxopiperidin-3-yl)-1,3-dioxoisoindolin-4-yl)amino)ethoxy)ethoxy)ethyl)-2-fluoro-5-methoxybenzamide], the greatest degradation seen (Dmax) was 60 to 80%. In the case of `COc1cc(C(=O)NC2CCN(C(=O)CCCNc3cccc4c3C(=O)N(C3CCC(=O)NC3=O)C4=O)CC2)c(F)cc1Nc1ncc2c(n1)N(C1CCCC1)CC(F)(F)C(=O)N2C` (stereo not shown) [Compound 39, 4-((9-cyclopentyl-7,7-difluoro-5-methyl-6-oxo-6,7,8,9-tetrahydro-5H-pyrimido[4,5-b][1,4]diazepin-2-yl)amino)-N-(1-(4-((2-(2,6-dioxopiperidin-3-yl)-1,3-dioxoisoindolin-4-yl)amino)butanoyl)piperidin-4-yl)-2-fluoro-5-methoxybenzamide], the DC50 is at most 50 nM and the greatest degradation seen (Dmax) is at least 80%.

For the molecule `COc1cc(C(=O)NC2CCCN(CCOCCNc3cccc4c3C(=O)N(C3CCC(=O)NC3=O)C4=O)C2)c(F)cc1Nc1ncc2c(n1)N(C1CCCC1)CC(F)(F)C(=O)N2C` (stereo not shown) [Example 105, 4-((9-cyclopentyl-7,7-difluoro-5-methyl-6-oxo-6,7,8,9-tetrahydro-5H-pyrimido[4,5-b][1,4]diazepin-2-yl)amino)-N-(1-(2-(2-((2-(2,6-dioxopiperidin-3-yl)-1,3-dioxoisoindolin-4-yl)amino)ethoxy)ethyl)piperidin-3-yl)-2-fluoro-5-methoxybenzamide], the DC50 is at most 500 nM and the Dmax was 60 to 80%.

`COc1cc(C(=O)NCCOCCOCCNc2cccc3c2C(=O)N(C2CCC(=O)NC2=O)C3=O)ccc1Nc1ncc2c(n1)N(C1CCCC1)CC(F)(F)C(=O)N2C` (stereo not shown) [Example 168, 4-((9-cyclopentyl-7,7-difluoro-5-methyl-6-oxo-6,7,8,9-tetrahydro-5H-pyrimido[4,5-b][1,4]diazepin-2-yl)amino)-N-(2-(2-(2-((2-(2,6-dioxopiperidin-3-yl)-1,3-dioxoisoindolin-4-yl)amino)ethoxy)ethoxy)ethyl)-3-methoxybenzamide]: the Dmax was at least 80%. For the molecule `COc1cc(C(=O)NC2CCN(CCOCCCOCCNc3cccc4c3C(=O)N(C3CCC(=O)NC3=O)C4=O)CC2)c(F)cc1Nc1ncc2c(n1)N(C1CCCC1)CC(F)(F)C(=O)N2C` (stereo not shown) [Compound 21, 4-((9-cyclopentyl-7,7-difluoro-5-methyl-6-oxo-6,7,8,9-tetrahydro-5H-pyrimido[4,5-b][1,4]diazepin-2-yl)amino)-N-(1-(2-(3-(2-((2-(2,6-dioxopiperidin-3-yl)-1,3-dioxoisoindolin-4-yl)amino)ethoxy)propoxy)ethyl)piperidin-4-yl)-2-fluoro-5-methoxybenzamide], the DC50 is at most 50 nM and the Dmax was at least 80%. Taken in the same sequence, the figures for `COc1cc(C(=O)N[C@@H]2CCN(C(=O)CCN3CCN(c4cccc5c4C(=O)N(C4CCC(=O)NC4=O)C5=O)CC3)C2)c(F)cc1Nc1ncc2c(n1)N(C1CCCC1)CC(F)(F)C(=O)N2C` (stereo partly drawn) [Compound 132, 4-((9-cyclopentyl-7,7-difluoro-5-methyl-6-oxo-6,7,8,9-tetrahydro-5H-pyrimido[4,5-b][1,4]diazepin-2-yl)amino)-N-((3R)-1-(3-(4-(2-(2,6-dioxopiperidin-3-yl)-1,3-dioxoisoindolin-4-yl)piperazin-1-yl)propanoyl)pyrrolidin-3-yl)-2-fluoro-5-methoxybenzamide] were at most 50 nM and at least 80%.

In general, DC50 refers to the midpoint of the concentration-degradation curve. For orientation: Dmax means the largest share of the target that was removed.
